# Results: publication PMC11879040, “Advancing systemic toxicity risk assessment: Evaluation of a NAM-based toolbox approach” (Toxicological Sciences, 2024)
# Where two headings read alike, the source gives them in different places.
# Tests used:
# [1] = unbound fraction in plasma (fup); conditions: PBK input, levels L2/L3; median of [2] internal data (unpublished) and [10]
# [2] = PBK input, levels L2/L3; ref [5]; cited from earlier work
# [3] = test system: Thyroid hormone receptor alpha, THRA (h); assay: IPP THRA coactivator recruitment (agonist); assay type: biochemical, human; conditions: agonist, T3
# [4] = test system: Potassium Voltage-Gated Channel Kv non-selective, KCNQ1 (r); assay: IPP KCNQ1 binding (antagonist radioligand); set-up: species or system rat; conditions: IPP screening at 100 uM; control α-dendrotoxin
# [5] = test system: Tubulin (r); assay: IPP Tubulin binding; set-up: species or system rat; conditions: ligand/control Colchicine
# [6] = cited from earlier work
# [7] = test system: HepG2 cells; assay: High-throughput transcriptomics (HTTr, TempO-Seq), HepG2, 24 h; assay type: cell-based, human
# Protocol: (§1) HepG2, HepaRG, and MCF7 cells were treated with each compound for 24 h across a dose range of 7 concentrations and lysed using TempO-Seq lysis buffer (BioSpyder Technologies, proprietary kit, see [Middleton et al. 2022] for method details). Sequencing was performed using TempO-Seq (BioClavis) version 2 of the human whole transcriptome panel and analyzed as described previously in Middleton et al.
# [8] = biological target: Dopamine receptor D2, DRD2 (h) (Homo sapiens, UniProt P14416); assay: biochemical
# Chain of Dopamine receptor D2, DRD2 (h) (P14416 whole entry): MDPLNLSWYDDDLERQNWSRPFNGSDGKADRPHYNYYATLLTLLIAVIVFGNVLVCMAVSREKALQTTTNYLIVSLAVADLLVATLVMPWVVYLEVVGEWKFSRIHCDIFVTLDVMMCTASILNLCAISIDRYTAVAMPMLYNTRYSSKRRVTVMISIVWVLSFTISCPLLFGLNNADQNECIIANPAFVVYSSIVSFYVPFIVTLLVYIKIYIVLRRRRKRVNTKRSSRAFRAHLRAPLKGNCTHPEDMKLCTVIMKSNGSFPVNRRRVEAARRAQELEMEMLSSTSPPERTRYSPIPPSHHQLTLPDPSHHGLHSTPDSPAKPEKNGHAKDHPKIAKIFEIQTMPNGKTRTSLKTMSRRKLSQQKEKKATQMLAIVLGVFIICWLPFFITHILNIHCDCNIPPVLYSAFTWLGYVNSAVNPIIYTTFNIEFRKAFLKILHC
# [9] = cited from earlier work; remark: listed apart in the source
# [10] = biological target: Voltage-dependent L-type Ca2+ channel (dihydropyridine site), CACNA1C (r) (Rattus norvegicus, UniProt P22002); assay type: binding
# Chain of Voltage-dependent L-type Ca2+ channel (dihydropyridine site), CACNA1C (r) (P22002 whole entry): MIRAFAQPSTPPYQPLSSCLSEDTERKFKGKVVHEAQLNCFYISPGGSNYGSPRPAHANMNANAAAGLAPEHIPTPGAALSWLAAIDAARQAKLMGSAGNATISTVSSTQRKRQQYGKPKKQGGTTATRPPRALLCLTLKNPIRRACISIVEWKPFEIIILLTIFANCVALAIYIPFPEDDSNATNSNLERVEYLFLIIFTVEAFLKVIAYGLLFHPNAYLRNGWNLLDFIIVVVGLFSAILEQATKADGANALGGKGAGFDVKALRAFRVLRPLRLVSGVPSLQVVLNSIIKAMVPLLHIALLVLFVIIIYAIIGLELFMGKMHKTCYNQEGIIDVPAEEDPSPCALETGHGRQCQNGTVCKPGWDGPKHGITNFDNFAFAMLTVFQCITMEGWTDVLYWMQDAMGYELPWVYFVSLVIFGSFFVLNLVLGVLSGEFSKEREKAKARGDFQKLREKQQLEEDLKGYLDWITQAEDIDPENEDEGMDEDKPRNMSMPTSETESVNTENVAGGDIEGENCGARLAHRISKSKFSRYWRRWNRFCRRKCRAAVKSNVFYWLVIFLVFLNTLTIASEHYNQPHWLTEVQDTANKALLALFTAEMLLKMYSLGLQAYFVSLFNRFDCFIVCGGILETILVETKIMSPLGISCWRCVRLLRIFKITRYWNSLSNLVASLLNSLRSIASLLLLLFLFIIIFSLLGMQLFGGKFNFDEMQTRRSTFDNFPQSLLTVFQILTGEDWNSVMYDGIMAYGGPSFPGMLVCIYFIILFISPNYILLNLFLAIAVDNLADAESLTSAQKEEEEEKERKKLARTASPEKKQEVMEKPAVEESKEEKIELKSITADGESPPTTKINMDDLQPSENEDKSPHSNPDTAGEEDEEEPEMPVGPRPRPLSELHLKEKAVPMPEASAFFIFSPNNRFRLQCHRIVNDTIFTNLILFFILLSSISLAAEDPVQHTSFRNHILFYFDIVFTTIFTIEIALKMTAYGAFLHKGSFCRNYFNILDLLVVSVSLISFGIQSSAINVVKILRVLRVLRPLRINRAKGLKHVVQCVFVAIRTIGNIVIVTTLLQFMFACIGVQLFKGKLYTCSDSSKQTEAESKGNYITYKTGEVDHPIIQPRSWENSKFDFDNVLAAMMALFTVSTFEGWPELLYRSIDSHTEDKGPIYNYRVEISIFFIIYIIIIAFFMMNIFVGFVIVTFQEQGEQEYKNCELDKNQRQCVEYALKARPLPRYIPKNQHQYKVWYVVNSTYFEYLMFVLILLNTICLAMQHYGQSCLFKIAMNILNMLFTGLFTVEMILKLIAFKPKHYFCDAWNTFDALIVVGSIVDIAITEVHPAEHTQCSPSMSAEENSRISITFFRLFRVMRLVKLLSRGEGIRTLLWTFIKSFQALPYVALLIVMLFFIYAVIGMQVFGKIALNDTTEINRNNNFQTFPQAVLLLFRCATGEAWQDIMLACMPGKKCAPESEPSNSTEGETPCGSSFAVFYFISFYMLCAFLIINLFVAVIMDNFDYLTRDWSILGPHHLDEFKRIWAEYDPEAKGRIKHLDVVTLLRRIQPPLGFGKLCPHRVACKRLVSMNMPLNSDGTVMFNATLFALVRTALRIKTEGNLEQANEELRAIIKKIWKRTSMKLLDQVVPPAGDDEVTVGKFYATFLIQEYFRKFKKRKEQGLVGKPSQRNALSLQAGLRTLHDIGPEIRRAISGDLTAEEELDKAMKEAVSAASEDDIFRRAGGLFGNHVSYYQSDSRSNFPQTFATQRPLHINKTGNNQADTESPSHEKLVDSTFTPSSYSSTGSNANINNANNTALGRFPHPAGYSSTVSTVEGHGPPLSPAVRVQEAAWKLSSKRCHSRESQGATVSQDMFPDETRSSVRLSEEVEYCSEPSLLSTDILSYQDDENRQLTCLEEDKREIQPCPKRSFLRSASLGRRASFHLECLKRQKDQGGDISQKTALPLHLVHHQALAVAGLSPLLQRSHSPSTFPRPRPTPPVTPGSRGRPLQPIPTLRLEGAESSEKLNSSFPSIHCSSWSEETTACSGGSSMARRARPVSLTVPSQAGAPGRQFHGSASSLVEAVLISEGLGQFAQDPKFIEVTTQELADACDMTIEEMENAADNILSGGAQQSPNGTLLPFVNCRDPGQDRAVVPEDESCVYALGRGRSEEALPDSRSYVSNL
# [11] = test system: Sodium channel protein type 5 subunit alpha (site 2), SCN5A (r); assay type: binding, rat
# [12] = Assignment of risk classifications to benchmark chemical-exposure scenarios; conditions: from table S1
# [13] = biological target: T1, Adenosine receptor A2a, ADORA2A (h) (Homo sapiens, UniProt P29274); assay: IPP ADORA2A binding (agonist radioligand); conditions: control NECA
# T1 construct: purchased Eurofins Cerep (SafetyScreen44-based IPP panel)
# T1 sequence (P29274 whole entry): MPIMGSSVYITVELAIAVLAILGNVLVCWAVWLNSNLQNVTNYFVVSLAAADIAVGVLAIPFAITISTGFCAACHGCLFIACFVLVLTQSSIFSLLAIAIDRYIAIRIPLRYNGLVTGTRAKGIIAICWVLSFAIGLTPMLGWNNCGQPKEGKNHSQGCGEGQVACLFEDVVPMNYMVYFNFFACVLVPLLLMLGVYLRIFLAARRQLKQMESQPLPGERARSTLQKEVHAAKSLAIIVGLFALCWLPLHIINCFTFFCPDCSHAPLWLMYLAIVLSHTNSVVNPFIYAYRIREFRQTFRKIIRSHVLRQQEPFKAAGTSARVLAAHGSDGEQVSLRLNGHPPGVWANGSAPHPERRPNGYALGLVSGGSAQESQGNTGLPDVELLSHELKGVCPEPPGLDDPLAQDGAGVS
# [14] = test system: Gamma-aminobutyric acid receptor subunit alpha-1 BZD site, GABRA1A (r); assay type: binding, rat; conditions: control diazepam
# [15] = at the given pH, single value or median, cited from earlier work
# [16] = hepatic intrinsic clearance (Clint); conditions: PBK level L3; optimised against clinical data; per chemical [8],[9],[14],[16],[22],[24],[25],[29],[30],[32]
# [17] = test system: Glutamate receptor ionotropic NMDA 1 non-selective, GRIN1 (r); conditions: IPP screening at 10 uM; control CGS 19755
# [18] = biological target: T2, Estrogen receptor, ER1 (h) (Homo sapiens, UniProt P03372); assay: IPP ER1 coactivator recruitment (antagonist); assay type: biochemical; conditions: 10 uM, estriol
# T2 construct: purchased Eurofins Cerep (SafetyScreen44-based IPP panel)
# T2 sequence (P03372 1-595): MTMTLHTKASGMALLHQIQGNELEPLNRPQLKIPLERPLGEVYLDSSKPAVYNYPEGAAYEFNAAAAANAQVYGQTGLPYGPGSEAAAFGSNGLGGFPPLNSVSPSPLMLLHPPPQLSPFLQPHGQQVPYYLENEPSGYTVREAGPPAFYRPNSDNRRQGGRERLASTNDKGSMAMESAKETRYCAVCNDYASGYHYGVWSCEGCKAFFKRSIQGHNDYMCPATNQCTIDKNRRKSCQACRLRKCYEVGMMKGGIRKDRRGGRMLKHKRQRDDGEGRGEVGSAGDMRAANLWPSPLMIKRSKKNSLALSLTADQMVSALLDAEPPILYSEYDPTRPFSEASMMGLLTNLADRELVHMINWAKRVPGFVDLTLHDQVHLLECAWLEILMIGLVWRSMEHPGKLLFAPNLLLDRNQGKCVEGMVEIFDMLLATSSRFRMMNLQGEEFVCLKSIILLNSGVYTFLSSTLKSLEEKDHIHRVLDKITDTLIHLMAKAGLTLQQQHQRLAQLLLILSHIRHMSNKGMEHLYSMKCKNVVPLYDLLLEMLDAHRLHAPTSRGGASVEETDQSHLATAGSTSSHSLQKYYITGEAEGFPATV
# [19] = PBK model plasma Cmax estimate (Gastroplus 9.8; levels L1, L2, L3); set-up: species or system human; conditions: therapeutic uses
# [20] = test system: rat; conditions: rat; 28 days; changes in thyroid hormone levels; ref ToxRefDB/Paul-Friedman et al. (2020)/regulatory opinions; cited from earlier work
# [21] = biological target: T2, Estrogen receptor, ER1 (h); assay: IPP ER1 coactivator recruitment (agonist); assay type: biochemical; conditions: 10 uM, estriol
# [22] = test system: HepaRG cells; assay: High-throughput transcriptomics (HTTr, TempO-Seq), HepaRG, 24 h; assay type: cell-based, human; conditions: HepaRG
# Protocol: as §1
# [23] = test system: MCF7 cells; assay: High-throughput transcriptomics (HTTr, TempO-Seq), MCF7, 24 h; assay type: cell-based, human; conditions: MCF-7
# Protocol: as §1
# [24] = biological target: T3, Pregnane X receptor PXR, NR1I2 (h) (Homo sapiens, UniProt O75469)
# T3 sequence (O75469 1-434): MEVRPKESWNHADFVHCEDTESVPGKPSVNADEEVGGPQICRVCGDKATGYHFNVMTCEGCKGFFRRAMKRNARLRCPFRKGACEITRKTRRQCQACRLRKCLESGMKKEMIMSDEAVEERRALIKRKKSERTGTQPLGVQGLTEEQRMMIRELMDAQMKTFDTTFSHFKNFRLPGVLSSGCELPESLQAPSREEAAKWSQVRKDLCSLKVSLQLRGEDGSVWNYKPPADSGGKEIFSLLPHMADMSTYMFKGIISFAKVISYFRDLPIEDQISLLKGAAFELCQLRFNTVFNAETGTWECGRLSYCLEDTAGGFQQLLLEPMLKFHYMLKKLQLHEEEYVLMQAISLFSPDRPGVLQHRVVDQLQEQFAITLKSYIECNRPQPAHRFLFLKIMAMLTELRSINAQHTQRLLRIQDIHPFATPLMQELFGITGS
# [25] = test system: 63 targets with known safety liabilities; assay: In vitro pharmacological profiling (IPP) panel, screening at 10 or 100 µM and dose response, minimum IC50/AC50; assay type: biochemical; conditions: lowest AC50 across IPP panel (systemic targets); cell_type -; read-out: ipp_lowest_ac50_systemic PoD
# [26] = human
# [27] = test system: HepG2 cells; assay: Cell stress panel (CSP), 24 h, 8 concentrations, BIFROST global PoD; assay type: cell-based; conditions: HepG2; cell stress panel PoD
# Protocol: Compounds were tested using the previously developed cell stress panel ([Hatherell et al. 2020]) and the expanded biomarker panel outlined in Middleton et al. HepG2 cells were treated with all compounds for 24 h across 8 concentrations prior to biomarker analysis. The same plate layout and number of replicates (3 biological and 2 technical) were used as previously for each assay within the panel.
# [28] = PBK level L2, taken or scaled from references (median where several), ref [6],[7],[10],[19]
# [29] = IV 10 mg infusion (8.9 mg), 6 healthy, calibration, ref Ross-Lee et al. 1981
# [30] = IV 20 mg infusion (15.4 mg base), 8 healthy, validation, ref Magueur et al. 1991
# [31] = Oral 10 mg tablet (8.9 mg), fasted, 6 healthy, calibration, ref Ross-Lee et al. 1981
# [32] = Oral 10 mg tablet (8.9 mg), fasted, 8 healthy male, validation, ref Bateman et al. 1980
# [33] = Oral 20 mg tablet (17 mg base), fasted, 8 healthy, validation, ref Magueur et al. 1991
# [34] = Oral 20 mg tablet (17.8 mg), fasted, 8 healthy male, validation, ref Bateman et al. 1980
# [35] = Oral 200 mg solution, fasted, 23 healthy male, validation, ref Huang et al. 1986
# [36] = Oral 200 mg suspension, fasted, 23 healthy male, validation, ref Huang et al. 1986
# [37] = Oral 200 mg tablet, fasted, 23 healthy male, validation, ref Huang et al. 1986
# [38] = Oral 200 mg tablet, fed, 6 healthy male, calibration, ref Daneshmend et al. 1981
# [39] = Oral 200 mg tablet, fed, 8 healthy male, validation, ref Daneshmend et al. 1983
smiles,measurement,setting,value
CN(C)[C@@H]1C(O)=C(C(N)=O)C(=O)[C@@]2(O)C(O)=C3C(=O)c4c(O)cccc4[C@@](C)(O)[C@H]3[C@H](O)[C@@H]12 [Oxytetracycline],Fup,[1],68.88%
same,logP/D,[2],-1.307
"CCN(CC)CCNC(=O)c1cc(Cl)c(N)cc1OC [Metoclopramide, 4-Amino-5-chloro-N-[2-(diethylamino)ethyl]-2-methoxybenzamide]","IPP screening %, Coactivator recruitment","[3]; 100 uM, * denotes assay interference (2-Amino-6-chloro-4-nitrophenol, HC Red 3)",1.0%
same,Specific binding,[4],-1.0%
same,"IPP screening %, Specific binding",[5]; 100 uM,0.0%
same,Intrinsic Liver Clearance,[6]; [28],33.81 L/h
same,Intrinsic Liver Clearance,"[6]; PBK level L3, scaled from references (median where several), ref [7],[10],[19]",33.81 L/h
same,"next lowest PoD, HepG2 HTTr",[7]; BIFROST gene level PoD,16 µM
same,IC50,[8],46 nM
same,Reported AUC0-t,[9]; [29],325.9 ng·h/mL
same,Reported cmax,[9]; [29],129.1 ng/mL
same,Reported tmax,[9]; [29],0.076 h
same,Reported AUC0-t,[9]; [30],968.3 ng·h/mL
same,Reported cmax,[9]; [30],201.3 ng/mL
same,Reported tmax,[9]; [30],0.042 h
same,Reported AUC0-t,[9]; [31],247.7 ng·h/mL
same,Reported cmax,[9]; [31],51.06 ng/mL
same,Reported tmax,[9]; [31],0.746 h
same,Reported AUC0-t,[9]; [32],142.87 ng·h/mL
same,Reported cmax,[9]; [32],39.948 ng/mL
same,Reported tmax,[9]; [32],0.7767 h
same,Reported AUC0-t,[9]; [33],604 ng·h/mL
same,Reported cmax,[9]; [33],55.85 ng/mL
same,Reported tmax,[9]; [33],2.01 h
same,Reported AUC0-t,[9]; [34],359.8 ng·h/mL
same,Reported cmax,[9]; [34],75.62 ng/mL
same,Reported tmax,[9]; [34],1.037 h
same,Specific binding,[10],-18.6%
same,Specific binding,[11],40.1%
same,risk,"[12]; IV, High therapeutic, 30 mg/day, Exp3",1
same,risk,"[12]; Oral, High therapeutic, 30 mg/day, Tablet, Exp2",1
same,risk,"[12]; Oral, Low therapeutic, 10 mg/day, Tablet, Exp1",1
same,Specific binding,[13]; IPP screening at 100 uM,6.5%
same,Specific binding,[14]; IPP screening at 100 uM,29.4%
"CC(=O)N1CCN(c2ccc(OC[C@H]3CO[C@](Cn4ccnc4)(c4ccc(Cl)cc4Cl)O3)cc2)CC1 [Ketoconazole, 1-{4-[4-({(2R,4S)-2-(2,4-Dichlorophenyl)-2-[(1H-imidazol-1-yl)methyl]-1,3-dioxolan-4-yl}methoxy)phenyl]piperazin-1-yl}ethan-1-one]",Aqueous Solubility,"[15]; PBK level L2, ref [1],[4],[5],[10],[11],[17],[26]",42 µg/mL
same,Aqueous Solubility,"[15]; PBK level L3, ref [4],[5],[10],[11]",42 µg/mL
same,"IPP screening %, Coactivator recruitment",[3]; 10 uM,1.0%
same,"IPP screening %, Specific binding",[5]; 10 uM,-15.0%
same,Intrinsic Liver Clearance,[16],10077 L/h
same,Specific binding,[17],2.7%
same,Intrinsic Liver Clearance,[6]; [28],1620.2 L/h
same,"IPP screening %, Coactivator recruitment",[18],24.0%
same,pod_httr_bifrost PoD,"[7]; HepG2, HTTr BIFROST PoD",0.0007156 µM
same,podl_path_minbmd PoD,"[7]; HepG2, HTTr minimum pathway BMD(L)",0.9153 µM
same,underprediction of the L3 result at L2 (Cmax),[19],≥ 5 fold
same,PoD (NOEL),[20],6.25 mg/kg bw/day
same,"IPP screening %, Coactivator recruitment",[21],-1.0%
same,Reported AUC0-t,[9]; [35],18170 ng·h/mL
same,Reported cmax,[9]; [35],5160 ng/mL
same,Reported tmax,[9]; [35],1 h
same,Reported AUC0-t,[9]; [36],15730 ng·h/mL
same,Reported cmax,[9]; [36],4660 ng/mL
same,Reported tmax,[9]; [36],1 h
same,Reported AUC0-t,[9]; [37],14740 ng·h/mL
same,Reported cmax,[9]; [37],3260 ng/mL
same,Reported tmax,[9]; [37],2 h
same,Reported AUC0-t,[9]; [38],16940 ng·h/mL
same,Reported cmax,[9]; [38],3573 ng/mL
same,Reported tmax,[9]; [38],2.475 h
same,Reported AUC0-t,[9]; [39],10330 ng·h/mL
same,Reported cmax,[9]; [39],3636 ng/mL
same,Reported tmax,[9]; [39],1.28 h
same,pod_httr_bifrost PoD,[22]; HTTr BIFROST PoD,0.01699 µM
same,podl_path_minbmd PoD,[22]; HTTr minimum pathway BMD(L),0.1535 µM
same,pod_httr_bifrost PoD,[23]; HTTr BIFROST PoD,0.1915 µM
same,podl_path_minbmd PoD,[23]; HTTr minimum pathway BMD(L),0.1648 µM
same,IPP Dose Response PoD: PXR antagonist,[24],"[7.8,21.8]"
same,risk,"[12]; Dermal, Therapeutic, 2% daily, Shampoo, Exp2",0
same,risk,"[12]; Dermal, Therapeutic, 2% twice weekly, Shampoo, Exp1",0
same,risk,"[12]; Oral, 200 mg/day for fungal infection, Tablet, Exp4",1
same,risk,"[12]; Oral, Therapeutic, 1200mg/day, Tablet, Exp3",1
same,Specific binding,[13]; IPP screening at 10 uM,2.1%
same,AC50,[25],380 nM
same,Fup,[26],0.1%
same,Specific binding,[14]; IPP screening at 10 uM,15.5%
same,pod_cell_stress PoD,[27],0.1454 µM
